Experimental data reported in US9890185B2, “Urea derivatives useful as kinase inhibitors” (Respivert Limited, priority 2013, dated 2018).

Tests used:
HT29 cells = experiment: IL-1β-induced IL-8 release in HT29 cells (assay d); assay type: cell-based; conditions: Homo sapiens, HT-29; IL-1β-stimulated HT29 cells; read-out: IC50 Values for Inhibition of Cytokine Release, HT29 cells IL-8
Experimental: HT29 cells, a human colon adenocarcinoma cell line, are plated in a 96 well plate (24 hrs) and pre-treated with compounds at the desired concentration for 2 hours before addition of 5 ng/mL of IL-1β (Abcam) for 24 hours. Supernatants are harvested for IL-8 quantification by Sandwich ELISA (Duo-set, R&D System). The IC50 is determined from the dose response curve.

[1] = target: p38 MAPKα isoform (MAPK14) (Homo sapiens (Human), UniProt Q16539); experiment: p38 MAPKα enzyme inhibition (FRET, Z-LYTE, Method 2); assay type: biochemical
Chain of p38 MAPKα isoform (MAPK14) (Q16539 whole entry, canonical isoform): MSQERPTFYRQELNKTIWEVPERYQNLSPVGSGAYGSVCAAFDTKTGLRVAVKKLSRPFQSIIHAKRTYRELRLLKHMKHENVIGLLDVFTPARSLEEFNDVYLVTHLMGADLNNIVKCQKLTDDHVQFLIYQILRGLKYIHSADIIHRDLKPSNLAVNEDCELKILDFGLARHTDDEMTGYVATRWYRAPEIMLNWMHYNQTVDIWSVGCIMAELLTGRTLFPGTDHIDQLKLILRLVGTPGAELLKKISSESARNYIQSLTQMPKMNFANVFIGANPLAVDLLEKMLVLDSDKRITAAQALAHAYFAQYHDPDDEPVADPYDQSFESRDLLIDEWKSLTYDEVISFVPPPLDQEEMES
Summary of the method: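 Z-LYTE FRET: p38 MAPKα (80 ng/mL for Method 1, 200 ng/mL for Method 2, pre-dilution) preincubated 2 hr RT with compound (4–0.004 μg/mL solutions), activity read via MAPKAP-K2 phosphorylation after 1 hr RT and 1 hr protease development. Coumarin/fluorescein ratio gives phosphorylation; % inhibition versus uninhibited control, IC50 from concentration-response curve.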

PBMCs [2] = experiment: LPS-induced IL-8 release in PBMC cells (assay b); assay type: cell-based, human; conditions: Homo sapiens, PBMC; LPS-stimulated PBMCs; read-out: IC50 Values for Inhibition of Cytokine Release, PBMCs IL-8
Summary of the method: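 Human PBMCs from healthy donors, isolated by density gradient, were pretreated with compound for 2 h and then stimulated with 1 ng/mL LPS (E. coli 0111:B4) for 24 h at 37° C, 5% CO2. Supernatant IL-8 and TNFα were measured by sandwich ELISA, and IC50 was taken from the dose-response curve.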

c-Src = c-Src (Homo sapiens (Human), UniProt P12931); experiment: c-Src enzyme inhibition (FRET, Z-LYTE); assay type: biochemical
Chain of c-Src (P12931 whole entry, looked up): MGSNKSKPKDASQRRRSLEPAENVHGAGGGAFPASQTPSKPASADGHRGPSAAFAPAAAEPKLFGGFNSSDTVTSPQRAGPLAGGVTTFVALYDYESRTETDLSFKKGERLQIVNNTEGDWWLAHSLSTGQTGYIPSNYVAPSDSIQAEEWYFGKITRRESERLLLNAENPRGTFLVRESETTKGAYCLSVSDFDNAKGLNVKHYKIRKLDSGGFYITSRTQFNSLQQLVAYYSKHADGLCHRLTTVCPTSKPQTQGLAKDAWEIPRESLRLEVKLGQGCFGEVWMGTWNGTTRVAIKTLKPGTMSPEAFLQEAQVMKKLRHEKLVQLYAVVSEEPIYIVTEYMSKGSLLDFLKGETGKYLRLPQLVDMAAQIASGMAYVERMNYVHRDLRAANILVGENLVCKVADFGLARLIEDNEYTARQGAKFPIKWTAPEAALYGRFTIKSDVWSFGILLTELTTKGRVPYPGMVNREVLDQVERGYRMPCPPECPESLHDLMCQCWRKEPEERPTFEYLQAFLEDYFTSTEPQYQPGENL
Summary of the method: (§1)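 c-Src (3000 ng/mL) or Syk (2000 ng/mL) stock was preincubated with compound (4–0.004 μg/mL stocks) for 2 hr at RT. FRET peptide (8 μM stock) and ATP (800 μM c-Src, 60 μM Syk, as added) were then added for 1 hr, followed by 1 hr protease development. The coumarin/fluorescein emission ratio gave % inhibition and IC50.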

Syk = Syk (Homo sapiens (Human), UniProt P43405); experiment: Syk enzyme inhibition (FRET, Z-LYTE); assay type: biochemical
Summary of the method: as §1

GSK 3α = GSK 3α (Homo sapiens (Human), UniProt P49840); experiment: GSK 3α enzyme inhibition (FRET, Z-LYTE, Method 2); assay type: biochemical; conditions: read-out: IC50 Values for Enzyme Inhibition, GSK3α
Chain of GSK 3α (P49840 whole entry): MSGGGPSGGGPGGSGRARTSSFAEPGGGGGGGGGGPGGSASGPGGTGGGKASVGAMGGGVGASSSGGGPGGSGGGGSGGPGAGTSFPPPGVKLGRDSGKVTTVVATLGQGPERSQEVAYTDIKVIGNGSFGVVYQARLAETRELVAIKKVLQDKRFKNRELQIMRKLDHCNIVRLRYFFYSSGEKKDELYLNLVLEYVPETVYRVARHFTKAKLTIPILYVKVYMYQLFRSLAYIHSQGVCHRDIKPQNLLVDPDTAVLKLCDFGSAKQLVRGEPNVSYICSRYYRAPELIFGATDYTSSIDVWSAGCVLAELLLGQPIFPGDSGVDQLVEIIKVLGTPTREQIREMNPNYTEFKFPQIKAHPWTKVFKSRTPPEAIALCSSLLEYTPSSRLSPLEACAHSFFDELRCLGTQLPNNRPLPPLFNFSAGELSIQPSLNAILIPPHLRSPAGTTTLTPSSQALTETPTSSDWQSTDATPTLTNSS
Summary of the method: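 Human GSK3α (500 ng/mL) preincubated with compound (4, 0.4, 0.04 or 0.004 μg/mL) at RT for 2 h (Method 1) or 105 min (Method 2). Then FRET peptide (8 μM) and ATP (40 μM) added for 1 h, followed by protease development for 1 h. IC50 from the coumarin/fluorescein emission ratio relative to uninhibited control.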

d-U937 cells = experiment: Accumulation of β catenin in d-U937 cells (assay m); assay type: cell-based, human; conditions: percentage relative to Reference Compound at 1 μg/mL
Summary of the method: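 PMA-differentiated (100 ng/mL, 48–72 hr) human U937 macrophage-type cells treated with test compound or vehicle for 18 hr. β-catenin measured by in-cell ELISA (anti-β-catenin, HRP secondary, TMB, OD450–655). Signal corrected for cell number by dividing by crystal violet OD595.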

PBMCs [3] = experiment: Cell mitosis assay in PBMCs (assay g); assay type: cell-based; conditions: Homo sapiens, PBMC, test compound 5 μg/mL
Summary of the method: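 Human PBMCs from healthy donors, stimulated with 2% PHA for 48 hr, then exposed to test compounds for 20 hr, with demecolcine (0.1 μg/mL) added 2 hr before harvest. Cells fixed/permeabilised, stained for phospho-histone 3 and propidium iodide, and read by flow cytometry gated on lymphocytes. % mitosis inhibition vs 0.5% DMSO vehicle.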

PBMCs [4] = experiment: IL-2 release in CD3/CD28 stimulated PBMC cells (assay c); assay type: cell-based; conditions: Homo sapiens, read-out: IC50 Values for Inhibition of Cytokine Release, PBMCs IL-2
Summary of the method: (§2)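 Sandwich ELISA of supernatant IL-2 and IFN gamma; IC50 from dose-response curve. Cells: density-gradient PBMCs from healthy subjects on plate-bound anti-CD3 0.3 μg/mL + anti-CD28 3 μg/mL, compound added, 3 d culture.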

PBMCs [5] = experiment: IFN gamma release in CD3/CD28 stimulated PBMC cells (assay c); assay type: cell-based; conditions: Homo sapiens, read-out: IC50 Values for Inhibition of Cytokine Release, PBMCs IFNγ
Summary of the method: as §2

| IC50 (HT29 cells) | IC50 [1] | IC50 (c-Src) | IC50 (Syk) | IC50 (GSK 3α) | Structure (SMILES) | IC50 (PBMCs [2]) | % β-catenin induction (d-U937 cells; test compound 1 μg/mL) | % β-catenin induction (d-U937 cells; test compound 5 μg/mL) | % β-catenin induction (d-U937 cells; test compound 10 μg/mL) | inhibition at 5 µg/mL (PBMCs [3]) | IC50 (PBMCs [4]) | IC50 (PBMCs [5]) |
| --- | --- | --- | --- | --- | --- | --- | --- | --- | --- | --- | --- | --- |
|  | 17 nM | 15 nM | 190 nM | 1220 nM | COc1cc(Nc2cc(Oc3ccc(NC(=O)Nc4cc(C(C)(C)C)cc(CC(N)=O)c4OC)c4ccccc34)ccn2)cc(C(=O)NCCN2CC[S+]([O-])CC2)c1 [Example 65, 3-((4-((4-(3-(3-(2-Amino-2-oxoethyl)-5-(tert-butyl)-2-methoxyphenyl)ureido)naphthalen-1-yl)oxy)pyridin-2-yl)amino)-5-methoxy-N-(2-(1-oxidothiomorpholino)ethyl)benzamide] | 4.3 nM |  |  |  | 8.7% | 31.3 nM | 7.6 nM |
|  | 222 nM | 54 nM | 918 nM | 4280 nM | COc1cc(Nc2cc(Oc3ccc(NC(=O)Nc4cc(C(C)(C)C)cc(OC(CO)CO)c4OC)c4ccccc34)ccn2)cc(C(N)=O)c1 [Example 66, 3-((4-((4-(3-(5-(tert-Butyl)-3-((1,3-dihydroxypropan-2-yl)oxy)-2-methoxyphenyl)ureido)naphthalen-1-yl)oxy)pyridin-2-yl)amino)-5-methoxybenzamide] | 2.2 nM |  |  |  | 46.4% | 60.9 nM | 7.7 nM |
|  | 13 nM | 18 nM | 143 nM | 1320 nM | COc1cc(Nc2cc(Oc3ccc(NC(=O)Nc4cc(C(C)(C)C)cc(CC(N)=O)c4OC)c4ccccc34)ccn2)cc(C(=O)NCCCN2CC[S+]([O-])CC2)c1 [Example 68, 3-((4-((4-(3-(3-(2-Amino-2-oxoethyl)-5-(tert-butyl)-2-methoxyphenyl)ureido)naphthalen-1-yl)oxy)pyridin-2-yl)amino)-5-methoxy-N-(3-(1-oxidothiomorpholino)propyl)benzamide] | 3.8 nM |  |  |  | -0.6% | 40.6 nM | 8 nM |
|  | 16 nM | 12 nM | 124 nM | 1960 nM | COc1cc(Nc2cc(Oc3ccc(NC(=O)Nc4cc(C(C)(C)C)cc([S+](C)[O-])c4OC)c4ccccc34)ccn2)cc(C(=O)NCCN2CC[S+]([O-])CC2)c1 (stereo not shown) [Example 69, 3-((4-((4-(3-(5-(tert-Butyl)-2-methoxy-3-(methylsulfinyl)phenyl)ureido)naphthalen-1-yl)oxy)pyridin-2-yl)amino)-5-methoxy-N-(2-(1-oxidothiomorpholino)ethyl)benzamide] | 2.3 nM |  |  |  | 8.9% | 75.7 nM | 7.6 nM |
|  | 25 nM | 14 nM | 26 nM | 1200 nM | COc1cc(Nc2cc(Oc3ccc(NC(=O)Nc4cc(C(C)(C)C)cc(CNC(C)=O)c4OC)c4ccccc34)ccn2)cc(C(=O)NCCN2CC[S+]([O-])CC2)c1 [Example 71, 3-((4-((4-(3-(3-(Acetamidomethyl)-5-(tert-butyl)-2-methoxyphenyl)ureido)naphthalen-1-yl)oxy)pyridin-2-yl)amino)-5-methoxy-N-(2-(1-oxidothiomorpholino)ethyl)benzamide] | 3.4 nM |  |  |  | 48.3% | 33.7 nM | 7.2 nM |
|  | 134 nM | 78 nM | > 1100 nM | 2320 nM | COc1cc(Nc2cc(Oc3ccc(NC(=O)Nc4cc(C(C)(C)C)cc(P(C)(C)=O)c4OC)c4ccccc34)ccn2)cc(S(=O)(=O)N(C)CCN2CCOCC2)c1 [Example 75, 3-((4-((4-(3-(5-(tert-Butyl)-3-(dimethylphosphoryl)-2-methoxyphenyl)ureido)naphthalen-1-yl)oxy)pyridin-2-yl)amino)-5-methoxy-N-methyl-N-(2-morpholinoethyl)benzenesulfonamide] | 1.6 nM |  |  |  | 13.9% | 115 nM | 3 nM |

Further lines, the compound ahead of its results:

| Structure (SMILES) | IC50 (HT29 cells) | IC50 [1] | IC50 (c-Src) | IC50 (Syk) | IC50 (GSK 3α) | IC50 (PBMCs [2]) | % β-catenin induction (d-U937 cells; test compound 1 μg/mL) | % β-catenin induction (d-U937 cells; test compound 5 μg/mL) | % β-catenin induction (d-U937 cells; test compound 10 μg/mL) | inhibition at 5 µg/mL (PBMCs [3]) | IC50 (PBMCs [4]) | IC50 (PBMCs [5]) |
| --- | --- | --- | --- | --- | --- | --- | --- | --- | --- | --- | --- | --- |
| COCCOCCOCCOc1cc(Nc2nccc(Oc3ccc(NC(=O)Nc4cc(C(C)(C)C)cc(CC(N)=O)c4OC)c4ccccc34)n2)cc(OC)c1 [15(c), 2-(5-(tert-butyl)-2-methoxy-3-(3-(4-((2-((3-methoxy-5-(2-(2-(2-methoxyethoxy)ethoxy)-ethoxy)phenyl)amino)pyrimidin-4-yl)oxy)naphthalen-1-yl)ureido)phenyl)acetamide] | 3.6 nM | 52 nM | 16 nM | 103 nM | 844 nM | 1.6 nM | 5.5% | 36.0% | 33.0% |  |  |  |
| COc1c(NC(=O)Nc2ccc(Oc3ccnc(Nc4ccccc4)c3)c3ccccc23)cc(C(C)(C)C)cc1C(=O)NCCN1CCC1 [38(a), N-(2-(Azetidin-1-yl)ethyl)-5-(tert-butyl)-2-methoxy-3-(3-(4-((2-(phenylamino)pyridin-4-yl)oxy)naphthalen-1-yl)ureido)benzamide] | 25.7 nM | 119 nM | 74 nM | 54 nM | 3320 nM | 3.8 nM | 5.0% | 10.7% | 19.0% | 86.2% |  |  |
| COCCOCCOCCOc1cc(Nc2nccc(Oc3ccc(NC(=O)Nc4cc(C(C)(C)C)cc(OS(C)(=O)=O)c4OC)c4ccccc34)n2)cc(OC)c1 [Example 5, 5-(tert-Butyl)-2-methoxy-3-(3-(4-((2-((3-methoxy-5-(2-(2-(2-methoxyethoxy)ethoxy)-ethoxy)phenyl)amino)pyrimidin-4-yl)oxy)naphthalen-1-yl)ureido)phenyl methanesulfonate] | 7.3 nM |  |  |  | > 9380 nM | 8.7 nM |  |  |  |  |  |  |
| COc1cc(Nc2cc(Oc3ccc(NC(=O)Nc4cc(C(C)(C)C)cc(C(=O)NCCN5CCOCC5)c4OC)c4ccccc34)ccn2)cc(OC)c1 [Example 62, 5-(tert-Butyl)-3-(3-(4-((2-((3,5-dimethoxyphenyl)amino)pyridin-4-yl)oxy)naphthalen-1-yl)ureido)-2-methoxy-N-(2-morpholinoethyl)benzamide] |  | 482 nM | 105 nM | 145 nM | > 11400 nM | 2.4 nM |  |  |  | 54.1% | 24.9 nM | 4.8 nM |
| COc1cccc(Nc2cc(Oc3ccc(NC(=O)Nc4cc(C(C)(C)C)cc(C(=O)NCCN5CCOCC5)c4OC)c4ccccc34)ccn2)c1 [Example 63, 5-(tert-Butyl)-2-methoxy-3-(3-(4-((2-((3-methoxyphenyl)amino)pyridin-4-yl)oxy)naphthalen-1-yl)ureido)-N-(2-morpholinoethyl)benzamide] |  | 811 nM | 98 nM | 154 nM | 7660 nM | 2.5 nM |  |  |  | 45.1% | 17.5 nM | 7.7 nM |
| COc1cc(Nc2cc(Oc3ccc(NC(=O)Nc4cc(C(C)(C)C)cc(C(=O)NCCN5CC[S+]([O-])CC5)c4OC)c4ccccc34)ccn2)cc(OC)c1 [Example 64, 5-(tert-Butyl)-3-(3-(4-((2-((3,5-dimethoxyphenyl)amino)pyridin-4-yl)oxy)naphthalen-1-yl)ureido)-2-methoxy-N-(2-(1-oxidothiomorpholino)ethyl)benzamide] |  | 945 nM | 90 nM | 156 nM | 9390 nM | 2.6 nM |  |  |  | 32.4% | 62.7 nM | 13.3 nM |
